Experimental data as given in patent US20220151979A1, “COMPOSITION FOR PREVENTION OR TREATMENT OF CARDIOVASCULAR AND METABOLIC DISEASE COMPRISING NORANHYDROICARITIN” (SEOUL NATIONAL UNIVERSITY HOSPITAL, priority 2019, published 2022).

What was measured:
Type in all cases: cell-based, human
[1] = tested on: PCSK9; assay: Immunoblot of PCSK9 in HepG2 cells, noranhydroicaritin and pravastatin, pitavastatin, fluvastatin or simvastatin (Table 1); settings: statin 5 μM singly, untreated = 1 ± 0.04
Procedure: (§1) The cells aliquoted by the method of Example 7 were treated with noranhydroicaritin or each statin (pravastatin, pitavastatin, fluvastatin, or simvastatin) singly or with noranhydroicaritin and a statin (pravastatin, pitavastatin, fluvastatin, or simvastatin) simultaneously, and the proteins were extracted. On an SDS-polyacrylamide gel, 30 μg of each protein was electrophoresed, and attached to a membrane, and then protein expression levels were confirmed using the respective antibodies: PCSK9 and LDLR.

[2] = tested on: PCSK9; assay: Immunoblot of PCSK9 in HepG2 cells, noranhydroicaritin and statin singly or in combination; settings: treated singly
Procedure: as §1, with “or a” for “or each”, “statin (atorvastatin” for “statin (pravastatin, pitavastatin, fluvastatin,”, “or rosuvastatin)” for “or simvastatin)”, “antibodies: phospho-AMPK, PCSK9, LDLR,” for “antibodies: PCSK9”, “and PPARγ.” for “and LDLR.”

[3] = tested on: SREBP 1 promoter; assay: SREBP 1 promoter-reporter luciferase assay in HEK293T cells; settings: pGL4.14-SREBP-transfected HEK293T cells, 18 hours, compared to control
Procedure: (§2) In order to confirm the SREBP gene expression inhibitory effect of noranhydroicaritin, HEK293T cells were treated with noranhydroicaritin and kaempferol, and it was confirmed whether the expression of SREBP was inhibited through a luciferase assay.
(§3) i) A primer was prepared to contain KpnI and XhoI restriction enzyme sites in the SREBP 1 and 2 promoter gene region, and then PCR (polymerase chain reaction) and electrophoresis on an agarose gel were performed to isolate SREBP promoter region DNA. A pGL4.14-[luc2/Hygro] vector containing a firefly luciferase as a reporter gene was treated with the same restriction enzymes (KpnI and XhoI), and then isolated via agarose gel electrophoresis and gel extraction. The purely isolated SREBP promoter gene region and pGL4.14-[luc2/Hygro] vector were reacted for 1 hour using In-fusion DNA ligase (Takara), and then transformed into E. coli to prepare a promoter-reporter construct in which the SREBP promoter was inserted, and this was named pGL4.14-SREBP.
(§4) ii) In order to measure the transcriptional activity of the SREBP promoter gene, HEK293T cells were transfected with pGL4.14-SREBP, and then the luciferase activity of the cell extract was measured. […] Thereafter, the luciferase activity was measured by the method of Example 6. […]

[4] = tested on: SREBP 2 promoter; assay: SREBP 2 promoter-reporter luciferase assay in HEK293T cells; settings: pGL4.14-SREBP-transfected HEK293T cells, 18 hours, compared to control
Procedure: as §2, §3, §4

Compound | PCSK9 [1] | further results
CCC(C)(C)C(=O)O[C@H]1C[C@@H](C)C=C2C=C[C@H](C)[C@H](CC[C@@H]3C[C@@H](O)CC(=O)O3)[C@H]21 [Simvastatin, simvastatin] | 1.85 ± 0.11 | 
O=C(O)C[C@H](O)C[C@H](O)/C=C/c1c(C2CC2)nc2ccccc2c1-c1ccc(F)cc1 [Pitavastatin, pitavastatin] | 1.59 ± 0.02 | 
CC(C)c1nc(N(C)S(C)(=O)=O)nc(-c2ccc(F)cc2)c1/C=C/[C@@H](O)C[C@@H](O)CC(=O)O [rosuvastatin] |  | quantity of PCSK9 (immunoblot) [2]: increased
CC(C)n1c(/C=C/C(O)CC(O)CC(=O)O)c(-c2ccc(F)cc2)c2ccccc21 (centres unmarked) [Fluvastatin, fluvastatin] | 1.63 ± 0.02 | 
CC[C@H](C)C(=O)O[C@H]1C[C@H](O)C=C2C=C[C@H](C)[C@H](CC[C@@H](O)C[C@@H](O)CC(=O)O)[C@H]21 [Pravastatin, pravastatin] | 1.9 ± 0.06 | 
O=c1c(O)c(-c2ccc(O)cc2)oc2cc(O)cc(O)c12 [kaempferol, reference compound] |  | SREBP 1 luciferase activity [3]: actually increased; SREBP 2 luciferase activity [4]: actually increased
CC(C)c1c(C(=O)Nc2ccccc2)c(-c2ccccc2)c(-c2ccc(F)cc2)n1CC[C@@H](O)C[C@@H](O)CC(=O)O [atorvastatin] |  | quantity of PCSK9 (immunoblot) [2]: increased
